# Reference: article PMC11139883, “Functional and structural dissection of glycosyltransferases underlying the glycodiversity of wolfberry-derived bioactive ingredients lycibarbarspermidines” (Nature Communications, 2024)
# B1: LbUGT1 (Lycium barbarum) (protein)
# chain: LTTKAELVFIPSPGAGHLISAIEIAKLILNRDERLCISVLIMKLPMDFGVQSYVASLSSSPRLQFVDITLDEKTVAGLLKNKESFFTDFIQGHKPKVKDFIHNTSFSKSGSGFSRLAGFVLDMFCTSMIDVASEFSVPSYIFLTSNAAFLALCYHFESLKKEHHIDTSKYKDSDEELTIPGFKNPYPGKFLPRLTTDQTTATTLFFDSVTRFKETKGIMVNTFAELEPFALQSLLVPKIYPVGPVVNFKEGGHGRNSESETESIIKWLDDQPESSVVFLCFGSMGSFDAEQIEEIAVALECSGHRFLWSLRRPPPKGKMELPSNYEDFQEVLPEGFIERTNGVGKVIGWAPQVAVLSHPAVGGFVSHCGWNSVLESLCFGVPIGAWPQYAEQQMNAFELVKQLGLAVEIRMDYFKDFEGKHGPVEIVTAKEIASGIRQLMADGEENEIRKRAKEMKEKSSAAMKEGGSSYASLGLLIEDVISNIS
# notes: full length (485 residues by printed domain borders); GST fusion (pGEX-2TK) from E. coli Rosetta (DE3) for assays; crystal protein with MBP-His tag removed by TEV
# Assays:
# Test in all cases: LC-MS product assay, Michaelis-Menten fit
# Assay type in all cases: biochemical, Lycium barbarum
# Conditions in all cases: 2.5 mM UDP-Glc, 1 mM MgCl2, 10 mM HEPES pH 7.0, 30 °C
# [1] = system: T1, LbUGT3
# T1 construct: full length (482 residues by printed domain borders); GST fusion (pGEX-2TK) from E. coli Rosetta (DE3) for assays; crystal protein with GST-His tag removed by TEV
# Description: LC-MS product assay, Michaelis-Menten fit on LbUGT3
# [2] = system: T2, LbUGT4
# T2 construct: full length; GST fusion (pGEX-2TK) from E. coli Rosetta (DE3)
# Description: LC-MS product assay, Michaelis-Menten fit on LbUGT4
# [3] = system: T3, LbUGT2
# T3 construct: full length; GST fusion (pGEX-2TK) from E. coli Rosetta (DE3)
# Description: LC-MS product assay, Michaelis-Menten fit on LbUGT2
# [4] = substrate: O=C(/C=C/c1ccc(O)c(O)c1)NCCCNCCCCNC(=O)CCc1ccc(O)c(O)c1
# Description: LC-MS product assay, Michaelis-Menten fit on LbUGT1
Molecule,Km [1],Km [2],Km [3],Km [4],kcat [4],kcat/Km [4]
"O=C(/C=C/c1ccc(O)c(O)c1)NCCCNCCCCNC(=O)CCc1ccc(O)c(O)c1 [compound 1, N^1-caffeoyl-N^10-dihydrocaffeoylspermidine]",325 µM,901 µM,762 µM,,,
B1,,,,259.4 µM,0.0057 s⁻¹,22.1 M⁻¹ s⁻¹
